How the values were obtained:
Format in all cases: cell-based
Conditions in all cases: compound concentration 50 μM, 72 hours
[1] = tested on: SU-DHL6; test: Inhibition of tumor cell proliferation, CellTiter-Glo, SU-DHL6
Method in brief: (§1)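 Activity is graded from survival at 50 μM: + for 60 to under 90%, ++ for over 30 to 60%, +++ for 30% or less. Survival was measured luminescently (CellTiter-Glo) 72 h after dosing, relative to untreated and blank wells; 2000-10000 cells/well, 37° C, 5% CO2.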

[2] = tested on: RPMI-8226; test: Inhibition of tumor cell proliferation, CellTiter-Glo, RPMI-8226
Method in brief: as §1

[3] = tested on: K562; test: Inhibition of tumor cell proliferation, CellTiter-Glo, K562
Method in brief: as §1

[4] = tested on: A549; test: Inhibition of tumor cell proliferation, CellTiter-Glo, A549
Method in brief: as §1

[5] = tested on: MDA-MB-453; test: Inhibition of tumor cell proliferation, CellTiter-Glo, MDA-MB-453
Method in brief: as §1

[6] = tested on: BxPC-3; test: Inhibition of tumor cell proliferation, CellTiter-Glo, BxPC-3
Method in brief: as §1

Compound | Inhibitory activity against proliferation (cell survival rate) SU-DHL6 [1] | Inhibitory activity against proliferation (cell survival rate) RPMI-8226 [2] | Inhibitory activity against proliferation (cell survival rate) K562 [3] | Inhibitory activity against proliferation (cell survival rate) A549 [4] | Inhibitory activity against proliferation (cell survival rate) MDA-MB-453 [5] | Inhibitory activity against proliferation (cell survival rate) BxPC-3 [6] | cell survival rate (% of control) at 50 µM ([1]; Homo sapiens, SU-DHL-6, read-out: Inhibitory activity against proliferation (cell survival rate) SU-DHL6) | cell survival rate (% of control) at 50 µM ([2]; Homo sapiens, RPMI-8226, read-out: Inhibitory activity against proliferation (cell survival rate) RPMI-8226) | cell survival rate (%) at 50 µM ([3]; Homo sapiens, K562, read-out: Inhibitory activity against proliferation (cell survival rate) K562) | cell survival rate (% of control) at 50 µM ([4]; Homo sapiens, A549, read-out: Inhibitory activity against proliferation (cell survival rate) A549) | cell survival rate (%) at 50 µM ([5]; Homo sapiens, MDA-MB-453, read-out: Inhibitory activity against proliferation (cell survival rate) MDA-MB-453) | cell survival rate (%) at 50 µM ([6]; Homo sapiens, BXPC-3, read-out: Inhibitory activity against proliferation (cell survival rate) BxPC-3)
O=C1CCC(N2Cc3c(NC(=O)OCCN4CCN(CCNC=C5C(=O)CC(c6ccccc6)CC5=O)CC4)cccc3C2=O)C(=O)N1 (stereo not drawn) [Compound 79] | + (60≤survival rate (%)<90) | +++ (survival rate (%)≤30) | + (60≤survival rate (%)<90) | + (60≤survival rate (%)<90) | ++ (30<survival rate (%)≤60) | ++ (30<survival rate (%)≤60) |  |  |  |  |  | 
O=C1CCC(N2C(=O)c3cccc(NC(=O)OCCN4CCN(CCNC=C5C(=O)CC(c6ccccc6)CC5=O)CC4)c3C2=O)C(=O)N1 (stereo not drawn) [Compound 80] | + (60≤survival rate (%)<90) | +++ (survival rate (%)≤30) | +++ (survival rate (%)≤30) | +++ (survival rate (%)≤30) | ++ (30<survival rate (%)≤60) | + (60≤survival rate (%)<90) |  |  |  |  |  | 
O=C1CCC(N2Cc3c(NC(=O)Nc4ccccc4OC(=O)CCC(=O)OCCN4CCN(CCNC=C5C(=O)CC(c6ccccc6)CC5=O)CC4)cccc3C2=O)C(=O)N1 (stereo not drawn) [Compound 81] | +++ (survival rate (%)≤30) | + (60≤survival rate (%)<90) | +++ (survival rate (%)≤30) | +++ (survival rate (%)≤30) | ++ (30<survival rate (%)≤60) | + (60≤survival rate (%)<90) |  |  |  |  |  | 
O=C1CCC(N2Cc3c(NC(=O)OCc4ccc(NC=C5C(=O)CC(c6ccccc6)CC5=O)nc4)cccc3C2=O)C(=O)N1 (stereo not drawn) [Compound 82] |  |  |  |  |  |  | ≤ 30% | 60 to 90% | 60 to 90% | ≤ 30% | 30 to 60% | 60 to 90%
O=C1CCC(N2C(=O)c3cccc(NC(=O)OCc4ccc(NC=C5C(=O)CC(c6ccccc6)CC5=O)nc4)c3C2=O)C(=O)N1 (stereo not drawn) [Compound 83] | + (60≤survival rate (%)<90) | + (60≤survival rate (%)<90) | + (60≤survival rate (%)<90) | + (60≤survival rate (%)<90) | ++ (30<survival rate (%)≤60) | + (60≤survival rate (%)<90) |  |  |  |  |  | 
O=C1CCC(N2Cc3c(NC(=O)OCc4cnc(NC=C5C(=O)CC(c6ccccc6)CC5=O)s4)cccc3C2=O)C(=O)N1 (stereo not drawn) [Compound 84] | +++ (survival rate (%)≤30) | +++ (survival rate (%)≤30) | +++ (survival rate (%)≤30) | + (60≤survival rate (%)<90) | +++ (survival rate (%)≤30) | + (60≤survival rate (%)<90) |  |  |  |  |  | 
O=C1CCC(N2Cc3c(NC(=O)OCOC(=O)C=CC(=O)N4CCN(CCNC=C5C(=O)CC(c6ccccc6)CC5=O)CC4)cccc3C2=O)C(=O)N1 (stereo not drawn) [Compound 85] | + (60≤survival rate (%)<90) | +++ (survival rate (%)≤30) | ++ (30<survival rate (%)≤60) | ++ (30<survival rate (%)≤60) | + (60≤survival rate (%)<90) | + (60≤survival rate (%)<90) |  |  |  |  |  | 
O=C1CCC(N2C(=O)c3cccc(NC(=O)OCOC(=O)/C=C/C(=O)N4CCN(CCNC=C5C(=O)CC(c6ccccc6)CC5=O)CC4)c3C2=O)C(=O)N1 (stereo not drawn) [Compound 86] | + (60≤survival rate (%)<90) | + (60≤survival rate (%)<90) | +++ (survival rate (%)≤30) | +++ (survival rate (%)≤30) | +++ (survival rate (%)≤30) | ++ (30<survival rate (%)≤60) |  |  |  |  |  | 
O=C1CCC(N2Cc3c(NC(=O)OCCOCCN4CCN(CCNC=C5C(=O)CC(c6ccccc6)CC5=O)CC4)cccc3C2=O)C(=O)N1 (stereo not drawn) [Compound 87] | +++ (survival rate (%)≤30) | +++ (survival rate (%)≤30) | ++ (30<survival rate (%)≤60) | ++ (30<survival rate (%)≤60) | +++ (survival rate (%)≤30) | + (60≤survival rate (%)<90) |  |  |  |  |  | 
O=C1CCC(N2Cc3c(NC(=O)CCC(=O)N4CCN(CCNC=C5C(=O)CC(c6ccccc6)CC5=O)CC4)cccc3C2=O)C(=O)N1 (stereo not drawn) [Compound 91] | ++ (30<survival rate (%)≤60) | ++ (30<survival rate (%)≤60) | ++ (30<survival rate (%)≤60) | ++ (30<survival rate (%)≤60) | ++ (30<survival rate (%)≤60) | + (60≤survival rate (%)<90) |  |  |  |  |  | 
O=C1CCC(N2Cc3c(NC(=O)c4ccc(CN5CCN(CCNC=C6C(=O)CC(c7ccccc7)CC6=O)CC5)cc4)cccc3C2=O)C(=O)N1 (stereo not drawn) [Compound 92] | +++ (survival rate (%)≤30) | +++ (survival rate (%)≤30) | + (60≤survival rate (%)<90) | + (60≤survival rate (%)<90) | ++ (30<survival rate (%)≤60) | + (60≤survival rate (%)<90) |  |  |  |  |  | 
O=C(/C=C\CN1CCN(CCNC=C2C(=O)CC(c3ccccc3)CC2=O)CC1)Nc1cccc2c1CN(C1CCC(=O)NC1=O)C2=O (stereo not drawn) [Compound 93] | +++ (survival rate (%)≤30) | +++ (survival rate (%)≤30) | ++ (30<survival rate (%)≤60) | ++ (30<survival rate (%)≤60) | ++ (30<survival rate (%)≤60) | + (60≤survival rate (%)<90) |  |  |  |  |  | 
O=C1CCC(N2C(=O)c3cccc(NC(=O)c4ccc(CN5CCN(CCNC=C6C(=O)CC(c7ccccc7)CC6=O)CC5)cc4)c3C2=O)C(=O)N1 (stereo not drawn) [Compound 94] | +++ (survival rate (%)≤30) | +++ (survival rate (%)≤30) | +++ (survival rate (%)≤30) | +++ (survival rate (%)≤30) | +++ (survival rate (%)≤30) | + (60≤survival rate (%)<90) |  |  |  |  |  | 
